Reference: PubChem BioAssay (NCI)
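These data come from cells grown in 96-well plates and exposed to compound for 48 hours at five concentrations. GI50: concentration for 50% inhibition of growth. TGI: concentration producing complete growth inhibition.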

Assays:
Assay in all cases: NCI tumour cell line growth inhibition, 48 h
MCF7 breast = tested on: MCF7 breast
OVCAR-3 ovarian = tested on: OVCAR-3 ovarian
T-47D breast = tested on: T-47D breast
MALME-3M melanoma = tested on: MALME-3M melanoma
SN12C renal = tested on: SN12C renal
KM12 colon = tested on: KM12 colon
OVCAR-4 ovarian = tested on: OVCAR-4 ovarian
TK-10 renal = tested on: TK-10 renal
SF-295 CNS = tested on: SF-295 CNS
HOP-92 NSCLC = tested on: HOP-92 NSCLC
CAKI-1 renal = tested on: CAKI-1 renal
HS 578T breast = tested on: HS 578T breast
NCI-H23 lung = tested on: NCI-H23 lung
NCI-H226 lung = tested on: NCI-H226 lung
RXF 393 renal = tested on: RXF 393 renal
HCC-2998 colon = tested on: HCC-2998 colon
NCI/ADR-RES ovarian = tested on: NCI/ADR-RES ovarian
IGROV1 ovarian = tested on: IGROV1 ovarian
786-0 renal = tested on: 786-0 renal
SK-OV-3 ovarian = tested on: SK-OV-3 ovarian
RPMI-8226 leukemia = tested on: RPMI-8226 leukemia
NCI-H522 lung = tested on: NCI-H522 lung
SR leukemia = tested on: SR leukemia
K-562 leukemia = tested on: K-562 leukemia
MDA-MB-231 breast = tested on: MDA-MB-231 breast
DU-145 prostate = tested on: DU-145 prostate
PC-3 prostate = tested on: PC-3 prostate
CCRF-CEM leukemia = tested on: CCRF-CEM leukemia

Structure (SMILES): Oc1c(Cl)cc(Cl)c2ccc(Cn3cc(-c4cc(F)cc(F)c4)nn3)nc12
- GI50 (MCF7 breast): 1540 nM
- TGI (MCF7 breast): 3.62 µM
- GI50 (OVCAR-3 ovarian): 1660 nM
- TGI (OVCAR-3 ovarian): 3.2 µM
- GI50 (T-47D breast): 2270 nM
- TGI (T-47D breast): 7.17 µM
- GI50 (MALME-3M melanoma): 1840 nM
- TGI (MALME-3M melanoma): 3.74 µM
- GI50 (SN12C renal): 4.21 µM
- TGI (SN12C renal): 16.2 µM
- GI50 (KM12 colon): 16.3 µM
- TGI (KM12 colon): 32.1 µM
- GI50 (OVCAR-4 ovarian): 1870 nM
- TGI (OVCAR-4 ovarian): 4.43 µM
- GI50 (TK-10 renal): 2100 nM
- TGI (TK-10 renal): 4.23 µM
- GI50 (SF-295 CNS): 17.8 µM
- TGI (SF-295 CNS): 32.9 µM
- GI50 (HOP-92 NSCLC): 1630 nM
- TGI (HOP-92 NSCLC): 4.37 µM
- GI50 (CAKI-1 renal): 1780 nM
- TGI (CAKI-1 renal): 4 µM
- GI50 (HS 578T breast): 3.22 µM
- TGI (HS 578T breast): 20 µM
- GI50 (NCI-H23 lung): 3.5 µM
- TGI (NCI-H23 lung): 12.8 µM
- GI50 (NCI-H226 lung): 10 µM
- TGI (NCI-H226 lung): 29 µM
- GI50 (RXF 393 renal): 1360 nM
- TGI (RXF 393 renal): 2990 nM
- GI50 (HCC-2998 colon): 13.3 µM
- TGI (HCC-2998 colon): 29.1 µM
- GI50 (NCI/ADR-RES ovarian): 24.1 µM
- TGI (NCI/ADR-RES ovarian): 85.3 µM
- GI50 (IGROV1 ovarian): 1820 nM
- TGI (IGROV1 ovarian): 4.18 µM
- GI50 (786-0 renal): 2090 nM
- TGI (786-0 renal): 4.84 µM
- GI50 (SK-OV-3 ovarian): 17 µM
- TGI (SK-OV-3 ovarian): 31.9 µM
- GI50 (RPMI-8226 leukemia): 2190 nM
- TGI (RPMI-8226 leukemia): 6.36 µM
- GI50 (NCI-H522 lung): 1720 nM
- TGI (NCI-H522 lung): 4.83 µM
- GI50 (SR leukemia): 2870 nM
- TGI (SR leukemia): > 100 µM
- GI50 (K-562 leukemia): 1090 nM
- TGI (K-562 leukemia): > 100 µM
- GI50 (MDA-MB-231 breast): 2710 nM
- TGI (MDA-MB-231 breast): 8.65 µM
- GI50 (DU-145 prostate): 2140 nM
- TGI (DU-145 prostate): 4.6 µM
- GI50 (PC-3 prostate): 5.26 µM
- TGI (PC-3 prostate): 18.8 µM
- GI50 (CCRF-CEM leukemia): 832 nM
- TGI (CCRF-CEM leukemia): > 100 µM
